Results from patent US20220401514A1, “ANTIMICROBIAL, BACTERIOPHAGE-DERIVED POLYPEPTIDES AND THEIR USE AGAINST GRAM-NEGATIVE AND ACID-FAST BACTERIA” (CONTRAFECT CORPORATION, priority 2019, published 2022).

Tests used:
[1] = test system: carbapenem-resistant P. aeruginosa clinical isolate CFS-1292; assay: MIC by modified CLSI broth microdilution against P. aeruginosa CFS-1292 (CAA, CAA + human serum); format: cell-based, Pseudomonas aeruginosa; details: for MIC (μg/mL) against CFS-1292 in 100% CAA (1st run/2nd run): 1st run or single value
Klebsiella pneumoniae = format: cell-based; details: for MIC50 / MIC100 / MIC Range: K. pneumoniae isolates (n per peptide in table); for MIC: Klebsiella pneumoniae HM-44, CAA supplemented with human serum
Description: (§1) Determination of Minimal Inhibitory Concentrations (MIC).
Additional MIC testing was performed for several peptides against the ESKAPE pathogens Escherichia coli, Enterobacter cloacae, Klebsiella pneumoniae, and Acinetobacter baumannii, in CAA supplemented with human serum (Table D).

Acinetobacter baumannii = assay: microbe, parasite or virus in culture; format: cell-based; details: for MIC50 / MIC100 / MIC Range: A. baumannii isolates (n per peptide in table)
S. maltophilia = assay: MIC against S. maltophilia isolates; format: cell-based, Stenotrophomonas maltophilia; details: for MIC50 / MIC100 / MIC Range: S. maltophilia isolates (n per peptide in table)
Procedure, shortened: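 Chp peptides were tested on a set of S. maltophilia isolates (n = isolates per species), with minimal inhibitory concentrations given in μg/mL.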

[2] = test system: carbapenem-resistant bacterial strains; assay: organism not typed; format: cell-based
From the text: as §1

[3] = test system: P. aeruginosa strain CFS-1292; assay: Checkerboard assay (FICI) with antibiotics, P. aeruginosa; format: cell-based, Pseudomonas aeruginosa; design: key to FIC Index: FICI = FIC A + FIC B; each FIC = MIC in combination / MIC alone; details: for FIC Index / interaction between the Chp peptide and the antibiotic (FICI values) / Chp peptide FIC: P. aeruginosa CFS-1292; for interaction between the Chp peptide and the antibiotic (FICI values): range of antibiotics; for FICI: CAA + […] human serum; for Chp peptide MIC in checkerboard: P. aeruginosa CFS-1292, CAA + […] human serum
Procedure, shortened: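 Antibiotic diluted 2-fold along one plate axis against Chp peptide; bacteria added at 1×10^5 […] in CAA, optionally with human serum or pulmonary surfactant.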

[4] = Stability assessment in 100% CAA; format: in vitro ADME; design: unit not given beside the values
Description: Stability was assessed after incubation in 100% human serum at 37° C. after 10 minutes, 1 hour, and 2 hours.
Stability assessment was further conducted in 100% CAA and rabbit serum using the same methodology discussed above.

M. scrofulaceum = assay: 45 hr MIC against M. scrofulaceum (NTM); format: cell-based, Mycobacterium scrofulaceum; details: M. scrofulaceum Prissick and Masson ATCC 19981
M. intracellulare = assay: 45 hr MIC against M. intracellulare (NTM); format: cell-based, Mycobacterium intracellulare; details: M. intracellulare (Cuttino and McCabe) Runyon ATCC 13950
[5] = test system: P. aeruginosa strain CFS-1292; assay: MIC in presence and absence of NaCl (140 mM); format: cell-based, Pseudomonas aeruginosa; details: for Fold change in MIC: CAA + 140 mM NaCl versus CAA without added NaCl; for MIC, CAA + 140 mM NaCl / MIC, CAA (no added NaCl): P. aeruginosa CFS-1292
Description: Certain Chp peptides were evaluated over a range of physiological NaCl levels and pH values, and were further evaluated for activity in the presence of various divalent cations.

[6] = test system: P. aeruginosa strain CFS-1292; assay: MIC at pH 6, pH 7 and pH 8; format: cell-based, Pseudomonas aeruginosa
Description: The Chp peptides were further evaluated at varying pH levels. The MIC values were determined at pH 6, pH 7, and pH 8 for 18 different Chp peptides against P. aeruginosa strain CFS-1292. […]

[7] = test system: P. aeruginosa strain CFS-1292; assay: MIC in presence and absence of Survanta pulmonary surfactant; format: cell-based, Pseudomonas aeruginosa
[8] = test system: M. kansasii Hauduroy ATCC 12478; assay: 45 hr MIC against M. kansasii (NTM), Mueller Hinton broth; format: cell-based, Mycobacterium kansasii
[9] = Acinetobacter baumannii (clinical isolate HSS), RSC 30, CAA without human serum
[10] = Acinetobacter baumannii (clinical isolate HSS), RSC 32, CAA without human serum
[11] = Acinetobacter baumannii ATCC BAA 747, CAA supplemented with human serum
[12] = carbapenem-resistant isolate PA19
[13] = carbapenem-resistant isolate PA20
[14] = carbapenem-resistant isolate PA21
[15] = carbapenem-resistant isolate PA22
[16] = carbapenem-resistant isolate PA23
[17] = carbapenem-resistant isolate PA24
[18] = carbapenem-resistant isolate WLC-452
[19] = CAA media + 0.19 mg/mL Survanta

Sequence: MRLKMARRRYRLPRRRSRRLFSRTALRMHPRNRLRRIMRGGIRF [Chp2]
- MIC (μg/mL) against CFS-1292 in 100% CAA (1st run/2nd run) [1]: 0.5 µg/mL
- MIC (μg/mL) against CFS-1292 in CAA + […] human serum [1]: 0.5 µg/mL
- MIC50 (Klebsiella pneumoniae): 0.5 µg/mL
- MIC100 (Klebsiella pneumoniae): 1 µg/mL
- MIC Range (Klebsiella pneumoniae): 0.125 to 1 µg/mL
- MIC (Klebsiella pneumoniae): 0.125 µg/mL
- MIC50 (Acinetobacter baumannii): 0.5 µg/mL
- MIC100 (Acinetobacter baumannii): 0.5 µg/mL
- MIC Range (Acinetobacter baumannii): 0.25 to 1 µg/mL
- MIC (Acinetobacter baumannii; [9]): 2 µg/mL
- MIC (Acinetobacter baumannii; [10]): 2 µg/mL
- MIC (Acinetobacter baumannii; [11]): 0.125 µg/mL
- MIC50 (S. maltophilia): 0.5 µg/mL
- MIC100 (S. maltophilia): 1 µg/mL
- MIC Range (S. maltophilia): 0.5 to 1 µg/mL
- activity against S. maltophilia (S. maltophilia; Table 45 isolates): active
- MIC [2, 12]: 0.5 µg/mL
- MIC [2, 13]: 1 µg/mL
- MIC [2, 14]: 1 µg/mL
- MIC [2, 15]: 1 µg/mL
- MIC [2, 16]: 1 µg/mL
- MIC [2, 17]: 1 µg/mL
- MIC [2, 18]: 0.5 µg/mL
- FIC Index ([3]; Chp peptide combined with Amikacin): 0.5
- FIC Index ([3]; Chp peptide combined with Azithromycin): 0.375
- FIC Index ([3]; Chp peptide combined with Aztreonam): 0.375
- FIC Index ([3]; Chp peptide combined with Ciprofloxacin): 0.75
- FIC Index ([3]; Chp peptide combined with Colistin): 0.375
- FIC Index ([3]; Chp peptide combined with Gentamicin): 0.5625
- FIC Index ([3]; Chp peptide combined with Imipenem): 0.375
- FIC Index ([3]; Chp peptide combined with Levofloxacin): 0.5
- FIC Index ([3]; Chp peptide combined with Meropenem): 0.375
- FIC Index ([3]; Chp peptide combined with Piperacillin): 1
- FIC Index ([3]; Chp peptide combined with Tobramycin): 0.375
- interaction between the Chp peptide and the antibiotic (FICI values) [3]: either synergy (i.e., ≤0.5) or strongly additive (i.e., >0.5-1)
- FICI ([3]; combination with Amikacin): 0.500
- FICI ([3]; combination with Azithromycin): 0.156
- FICI ([3]; combination with Aztreonam): 0.500
- FICI ([3]; combination with Ciprofloxacin): 0.500
- FICI ([3]; combination with Colistin): 0.375
- FICI ([3]; combination with Fosfomycin): 0.250
- FICI ([3]; combination with Gentamicin): 0.281
- FICI ([3]; combination with Imipenem): 0.188
- FICI ([3]; combination with Piperacillin): 0.188
- FICI ([3]; combination with Rifampicin): 0.563
- FICI ([3]; combination with Tobramycin): 0.266
- Chp peptide FIC ([3]; combined with Amikacin): 0.25
- Chp peptide MIC in checkerboard ([3]; combined with Amikacin): 0.25 µg/mL
- Chp peptide FIC ([3]; combined with Azithromycin): 0.125
- Chp peptide MIC in checkerboard ([3]; combined with Azithromycin): 0.0625 µg/mL
- Chp peptide FIC ([3]; combined with Aztreonam): 0.125
- Chp peptide MIC in checkerboard ([3]; combined with Aztreonam): 0.0625 µg/mL
- Chp peptide FIC ([3]; combined with Ciprofloxacin): 0.25
- Chp peptide MIC in checkerboard ([3]; combined with Ciprofloxacin): 0.125 µg/mL
- Chp peptide FIC ([3]; combined with Colistin): 0.125
- Chp peptide MIC in checkerboard ([3]; combined with Colistin): 0.0625 µg/mL
- Chp peptide FIC ([3]; combined with Gentamicin): 0.0625
- Chp peptide MIC in checkerboard ([3]; combined with Gentamicin): 0.03125 µg/mL
- Chp peptide FIC ([3]; combined with Imipenem): 0.25
- Chp peptide MIC in checkerboard ([3]; combined with Imipenem): 0.125 µg/mL
- Chp peptide FIC ([3]; combined with Levofloxacin): 0.25
- Chp peptide MIC in checkerboard ([3]; combined with Levofloxacin): 0.0625 µg/mL
- Chp peptide FIC ([3]; combined with Meropenem): 0.125
- Chp peptide MIC in checkerboard ([3]; combined with Meropenem): 0.0625 µg/mL
- Chp peptide FIC ([3]; combined with Piperacillin): 0.5
- Chp peptide MIC in checkerboard ([3]; combined with Piperacillin): 0.25 µg/mL
- Chp peptide FIC ([3]; combined with Tobramycin): 0.125
- Chp peptide MIC in checkerboard ([3]; combined with Tobramycin): 0.0625 µg/mL
- MIC (100% CAA) [4]: 0.25
- 45 hr MIC (M. scrofulaceum): 0.5 µg/mL
- 45 hr MIC (M. intracellulare): 0.5 µg/mL
- Fold change in MIC [5]: 1
- MIC, CAA + 140 mM NaCl [5]: 0.5 µg/mL
- MIC, CAA (no added NaCl) [5]: 0.5 µg/mL
- MIC ([6]; CAA media (pH 7)): 0.25 µg/mL
- MIC ([6]; pH 6): 0.25 µg/mL
- MIC ([6]; pH 7): 0.5 µg/mL
- MIC ([6]; pH 8): 0.5 µg/mL
- MIC [7, 19]: 1 µg/mL
- MIC ([7]; CAA media + […] Survanta): 1 µg/mL
- MIC ([7]; CAA media alone): 0.5 µg/mL
- 45 hr MIC [8]: 2 µg/mL

Sequence: MARRYRLSRRRSRRLFSRTALRMHRRNRLRRIMRGGIRF [Chp4]
- MIC (μg/mL) against CFS-1292 in 100% CAA (1st run/2nd run) [1]: 0.5 µg/mL
- MIC (μg/mL) against CFS-1292 in CAA + […] human serum [1]: 0.5 µg/mL
- MIC50 (Klebsiella pneumoniae): 1 µg/mL
- MIC100 (Klebsiella pneumoniae): 1 µg/mL
- MIC Range (Klebsiella pneumoniae): 0.5 to 1 µg/mL
- MIC (Klebsiella pneumoniae): 0.25 µg/mL
- MIC50 (Acinetobacter baumannii): 0.5 µg/mL
- MIC100 (Acinetobacter baumannii): 1 µg/mL
- MIC Range (Acinetobacter baumannii): 0.25 to 1 µg/mL
- MIC (Acinetobacter baumannii; [9]): 4 µg/mL
- MIC (Acinetobacter baumannii; [10]): 4 µg/mL
- MIC (Acinetobacter baumannii; [11]): 0.125 µg/mL
- MIC50 (S. maltophilia): 0.5 µg/mL
- MIC100 (S. maltophilia): 2 µg/mL
- MIC Range (S. maltophilia): 0.5 to 8 µg/mL
- MIC [2, 12]: 0.5 µg/mL
- MIC [2, 13]: 1 µg/mL
- MIC [2, 14]: 1 µg/mL
- MIC [2, 15]: 1 µg/mL
- MIC [2, 16]: 1 µg/mL
- MIC [2, 17]: 1 µg/mL
- MIC [2, 18]: 0.5 µg/mL
- interaction between the Chp peptide and the antibiotic (FICI values) [3]: either synergy (i.e., ≤0.5) or strongly additive (i.e., >0.5-1)
- FICI ([3]; combination with Amikacin): 0.500
- FICI ([3]; combination with Azithromycin): 0.156
- FICI ([3]; combination with Aztreonam): 0.375
- FICI ([3]; combination with Ciprofloxacin): 0.375
- FICI ([3]; combination with Colistin): 0.375
- FICI ([3]; combination with Fosfomycin): 0.250
- FICI ([3]; combination with Gentamicin): 0.250
- FICI ([3]; combination with Imipenem): 0.375
- FICI ([3]; combination with Piperacillin): 0.188
- FICI ([3]; combination with Rifampicin): 0.750
- FICI ([3]; combination with Tobramycin): 0.266
- MIC (100% CAA) [4]: 0.25
- 45 hr MIC (M. scrofulaceum): 2 µg/mL
- 45 hr MIC (M. intracellulare): 1 µg/mL
- Fold change in MIC [5]: 1
- MIC, CAA + 140 mM NaCl [5]: 0.5 µg/mL
- MIC, CAA (no added NaCl) [5]: 0.5 µg/mL
- MIC ([6]; CAA media (pH 7)): 0.5 µg/mL
- MIC ([6]; pH 6): 0.25 µg/mL
- MIC ([6]; pH 7): 0.5 µg/mL
- MIC ([6]; pH 8): 1 µg/mL
- MIC [7, 19]: 0.5 µg/mL
- MIC ([7]; CAA media + […] Survanta): 0.5 µg/mL
- MIC ([7]; CAA media alone): 0.5 µg/mL
- 45 hr MIC [8]: >0.125 µg/mL
